From US20080235828A1 (University of Manitoba, priority 2004, published 2008) come the findings set out here.

“Also recorded” adds a separate entry of the source.

The target of one assay is ABAP1 (Hordeum vulgare, UniProt Q9LLX3). Put plainly: ABA binding assay with purified recombinant ABAP1. Details: species or system barley. The note with it: analogs/precursors added at the same time as 3H+-ABA at different concentrations (20-5000). The protocol: Other additions or changes to the incubation system are discussed in the figure legends. All binding assays were carried out at a final volume of 150 μL at 4° C. for 1 hour. The mixture was then rapidly filtered through a nitrocellulose membrane, washed with 5 mL, of cold 0.5× binding buffer by rapid filtration, dried in air and counted in a scintillation counter (Wallac 1414 WinSpectral v1.40). […] The DCC binding mixture was maintained for 15 minutes on ice before centrifugation to precipitate DCC. The resulted supernatant was then counted in a scintillation counter to determine the binding activity. […] Heat denatured ABAP1 protein was used to determine the protein nature of the ABAP1 and BSA was used as a control. All binding studies were carried out using three different protein purifications with triplicate assays for each purification. […] Binding was represented as the number of moles of ^3H^+-ABA per mole of ABAP1 protein.
Chain of ABAP1 (Q9LLX3 entry or part of it): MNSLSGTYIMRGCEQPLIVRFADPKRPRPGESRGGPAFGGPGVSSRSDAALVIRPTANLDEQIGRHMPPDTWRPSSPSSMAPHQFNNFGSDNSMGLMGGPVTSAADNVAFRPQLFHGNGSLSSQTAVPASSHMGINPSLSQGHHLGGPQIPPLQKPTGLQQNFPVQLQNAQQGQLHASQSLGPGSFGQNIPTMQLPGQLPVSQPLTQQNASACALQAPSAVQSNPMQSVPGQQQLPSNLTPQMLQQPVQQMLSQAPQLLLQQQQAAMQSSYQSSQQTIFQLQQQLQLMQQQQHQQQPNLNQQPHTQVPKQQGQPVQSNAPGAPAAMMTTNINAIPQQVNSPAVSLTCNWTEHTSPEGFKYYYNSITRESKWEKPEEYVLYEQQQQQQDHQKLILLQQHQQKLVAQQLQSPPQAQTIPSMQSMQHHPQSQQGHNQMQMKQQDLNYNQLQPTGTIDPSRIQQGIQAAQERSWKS

The subject of another assay is α-amylase activity. Put plainly: α-amylase activity in bombarded barley aleurones. The class given is cell-based. As to conditions: em and ABAP1 bombarded aleurones.
The test system of the next assay is em promoter. Put plainly: em promoter driven GUS expression in bombarded barley aleurone layers. The class given is cell-based. As to conditions: in the presence of the added substance. An excerpt:
The studies examined the effector and reporter constructs, at a 1:1 ratio, introduced to barley aleurone layers by gold particle bombardment. The bombardment consisted of two trials: the first trial was a bombardment of em promoter only; the second trial was a bombardment of em promoters treated with ABAP1.

For another assay, the target named is T1, FCA protein (Arabidopsis thaliana, UniProt O04425).
T1 sequence (O04425 1-747 isoform O04425-1): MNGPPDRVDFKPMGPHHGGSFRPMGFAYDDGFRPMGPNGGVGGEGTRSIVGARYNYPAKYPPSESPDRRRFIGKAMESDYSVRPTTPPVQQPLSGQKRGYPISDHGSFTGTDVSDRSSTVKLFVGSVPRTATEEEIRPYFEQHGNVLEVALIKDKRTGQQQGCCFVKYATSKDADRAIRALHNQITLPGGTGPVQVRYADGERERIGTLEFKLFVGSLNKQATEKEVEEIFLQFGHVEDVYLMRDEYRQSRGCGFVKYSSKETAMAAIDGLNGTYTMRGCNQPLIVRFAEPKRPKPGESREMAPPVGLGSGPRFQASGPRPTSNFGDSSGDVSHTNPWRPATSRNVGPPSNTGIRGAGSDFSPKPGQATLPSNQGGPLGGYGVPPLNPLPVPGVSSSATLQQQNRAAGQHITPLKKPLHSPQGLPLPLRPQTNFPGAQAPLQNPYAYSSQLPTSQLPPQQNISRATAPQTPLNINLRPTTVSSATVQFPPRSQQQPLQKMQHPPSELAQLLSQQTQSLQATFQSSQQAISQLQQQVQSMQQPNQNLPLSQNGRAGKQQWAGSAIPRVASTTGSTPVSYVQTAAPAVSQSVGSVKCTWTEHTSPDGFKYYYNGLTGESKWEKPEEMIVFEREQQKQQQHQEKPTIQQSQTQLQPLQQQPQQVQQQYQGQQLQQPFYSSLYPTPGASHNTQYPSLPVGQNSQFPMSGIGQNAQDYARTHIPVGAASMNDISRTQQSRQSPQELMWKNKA
Briefly: ABA binding assay with purified recombinant FCA. Details: Kd; other: analog added in higher concentrations than 3H+-ABA (20-5000 nM); other: Scatchard analysis, r^2=0.88; other: in presence of 5 μM unlabelled (+)-ABA; pH range of maximum; fused on or other part: GST fused on for purification. As to conditions: analog added in higher concentrations than 3H+-ABA (20-5000 nM). The protocol:
[…] The mixture was then rapidly filtered through a nitrocellulose membrane, washed with 0.5× binding buffer, air dried and counted in a scintillation counter (Wallac 1414 WinSpectral v1.40). Heat denatured FCA protein was used to used determine the protein nature of the FCA and BSA was used as a control. All binding studies were carried out using three different GST affinity chromatography protein purifications with triplicate assays for each purification. […] Specific binding was calculated by taking the difference for assays with only ^3H^+-ABA (total binding) and assays that also contained 5 μM (±)-ABA added at the same time as ^3H^+-ABA (non-specific binding). Binding was represented as the number of moles of ^3H^+-ABA per mole of FCA protein.

In another assay the test system is FCA/FY interaction. Put plainly: GST pull-down of FCA/FY interaction in the presence of ABA. It counts as binding, Arabidopsis. The note with it: FCA pre-bound with ABA for 30 min. The protocol: All in vitro translation and GST pull-down assays were carried out as described by supplier's protocols (Promega, Madison, Wis.) with modifications^S and as follows. For GST in vitro pull-down assays, 15 μL GST affinity resin was incubated with 250 μL FCA clear lysate, pelleted and the complex blocked and washed with IP buffer as described^S. For the determination of the amount of FCA bound to GST resin, the pellet was resuspended with 200 μL of 15 mM GSH to elute FCA and the supernatant was recovered by centrifugation. FY protein to be tested for interaction with the GST-FCA fusion protein was synthesized from a plasmid template and labeled with [^35S]-methionine using the T7 TNT coupled Transcription/Translation System (Promega). Twenty μL of FY labeled protein and 180 μL of interaction buffer (12.5 mM Tris-HCl, pH 7.3 containing 5 mM KCl, 1 mM MgCl2, and 100 mM NaCl) were used to resuspend the GST:FCA after the final wash. The protein binding/interaction reaction was carried out for 90 minutes at 4° C. with continuous gentle mixing. The newly formed complex was then washed three times with 500 μL of IP wash buffer. After the final wash, the complex was resuspended, first with 10 μL of 1 5 mM GSH to facilitate the dissociation of interacted proteins from GST resin and then 10 μL of 2×SDS-PAGE sample buffer was added to the mixture and boiled for 5 minutes for complete elution of the proteins from the agarose beads. The beads were pelleted by centrifugation and supernatant was loaded on a 12% SDS-PAGE gel. The gel was dried and exposed to Kodak X-ray film for 18 hours at −70° C. and film was developed for the detection of labelled proteins.
FCA was bound with […] for 30 minutes at which time the FCA/FY translated product was added to the incubation mixture. The interaction between FCA/FY was carried out in the presence of either (−)- or (+)-ABA in binding buffer as described above. Released proteins were separated on SDS-PAGE and labelled proteins were detected as described above. FCA-WW-FY was used as a control.

A short description of assay [1]: ABA binding of ABAP1 trypsin fragments. Details: species or system barley. The note with it: for ABA binding molar ratio / affinity: trypsin fragments compared with full-length ABAP1. An excerpt: It is to be noted that the nucleotide fragment sequence SEQ ID NO: 12 corresponds to nucleotides 350 through 951 of the nucleotide sequence listing set forth in SEQ ID NO: 9, and that the amino acid sequence SEQ ID NO: 11 encoded by the nucleotide fragment sequence SEQ ID NO: 12 corresponds to amino acids 112 though 309 of the ABAP1 protein (SEQ. ID NO: 10). Mutation analysis can be used to determine the specific residues involved in […] binding. Those skilled in these arts will understand that the ABA-binding capacity within a recipient plant tissue or seed can be modulated by constructing a nucleotide molecule by first fusing the T-20 coding sequence (SEQ ID NO: 12) with a suitable regulatory nucleotide sequence selected for over-expression or for under-expression of the T-20 coding sequence, then stably introducing the T-20 nucleotide molecule into the genome of a recipient cell from a seed-producing plant, culturing the recipient cell into a functional whole plant and then further propagating the plant to produce mature recipient seeds. A suitable forward […] for the T-20 coding sequence is set forth in the sequence listing identified as SEQ ID NO: 15. A suitable reverse primer for the T-20 coding sequence is set forth in the sequence listing identified as SEQ ID NO: 16.

Description for α-amylase activity: A similar experiment was conducted with α-amylase activity to confirm if ABAP1 is involved in another signal transduction pathway. α-amylase activity was measured after ABA, PBI51 and GA were added to the em and ADAPT bombarded barley aleurones.

In the case of `CC1=CC(=O)CC(C)(C)[C@@]1(O)/C=C/C(C)=C\CO` [(+) ABA-alcohol], the figures for the “displacement of 3H+-ABA bound to ABAP1 (competition)” value (“displacement of 3H+-ABA bound” below) on ABAP1 and at ABAP1 (listed as ABA alcohol) were “able to displace” and “did competitively inhibit binding of ABA to ABAP1 to some extent”, respectively.

Take `CC1=CC(=O)CC(C)(C)[C@@]1(O)/C=C/C(C)=C\C=O` [(+) ABA-aldehyde]: the results for the “displacement of 3H+-ABA bound” value on ABAP1 and at ABAP1 (listed as ABA aldehyde) were “able to displace” and “did competitively inhibit binding of ABA to ABAP1 to some extent”, respectively.

As to `CC1=CC(=O)CC(C)(C)[C@@]1(O)/C=C/C(C)=C\C(=O)O[C@@H]1O[C@H](CO)[C@@H](O)[C@H](O)[C@H]1O` [ABA-GE, (+) abscisic acid-glucose ester], the “displacement of 3H+-ABA bound” value on ABAP1 was “incapability”.

In the case of `CC(=C/C(=O)O)/C=C/[C@]1(O)[C@@]2(C)CO[C@]1(C)C[C@@H](O)C2` [DPA, dihydrophaseic acid], the “displacement of 3H+-ABA bound” value at ABAP1 is “incapability”.

As to `C=C1C[C@]23C[C@@]1(O)CC[C@H]2[C@@]12C=C[C@H](O)[C@@](C)(C(=O)O1)[C@H]2[C@@H]3C(=O)O` [GA, gibberellic acid], in the assay with α-amylase activity, the α-amylase activity result is “did not affect any reduction”. Besides, in the assay on em promoter, the “activation of the em promoter by ABAP1” value was “reduced”.

In the case of `CC(=C/C(=O)O)/C=C/[C@]1(O)[C@@]2(C)CO[C@]1(C)CC(=O)C2` [PA, phaseic acid], at ABAP1, the “displacement of 3H+-ABA bound” value is “incapability”.

Turning to `C/C(C#C[C@]1(O)[C@H](C)CC(=O)CC1(C)C)=C/CO` [PBI51], the α-amylase activity result in the assay on α-amylase activity is “decreased”. For the same molecule, in the assay with em promoter, the “activation of the em promoter by ABAP1” value is “reduced”.

Take `CC(C=CC1(O)C(C)=CC(=O)CC1(C)C)=CC(=O)O` (stereo not drawn) [trans-ABA]: on ABAP1, the “displacement of 3H+-ABA bound” value is listed as “incapability; also recorded: neither (−)-ABA nor trans-ABA compete”. For the same molecule, the “displacement of 3H+-ABA binding to FCA” value on FCA protein is “Virtually no or very little displacement”.

Consider (−)-ABA, for which the “displacement of 3H+-ABA bound” value on ABAP1 is reported as “neither (−)-ABA nor trans-ABA compete”; at ABAP1 (listed as (−) ABA), “incapability”. Besides, the “inhibition of FCA/FY interaction” value in the assay on FCA/FY interaction was “did not significantly inhibit”. Moreover, the “displacement of 3H+-ABA binding to FCA” value on FCA protein is listed as “Virtually no or very little displacement”.

B1: 20 kDa fragment: trypsin fragment of ABAP1 with HR1 and HR2 regions, SEQ ID NO: 11 (protein)
chain: PQLFHGNGSLSSQTAVPASSHMGINPSLSQGHHLGGPQIPPLQKPTGLQQNFPVQLQNAQQGQLHASQSLGPGSFGQNIPTMQLPGQLPVSQPLTQQNASACALQAPSAVQSNPMQSVPGQQQLPSNLTPQMLQQPVQQMLSQAPQLLLQQQQAAMQSSYQSSQQTIFQLQQQLQLMQQQQHQQQPNLNQQPHTQVPK
modifications: Hordeum, vulgare subsp. vulgare
As to B1, in assay [1], the “ABA binding molar ratio / affinity” value is given as “about the same molar ratio”.

B2: 10 kDa fragment: trypsin fragment of ABAP1 containing HR2 only, SEQ ID NO: 13 (protein)
chain: SAVQSNPMQSVPGQQQLPSNLTPQMLQQPVQQMLSQAPQLLLQQQQAAMQSSYQSSQQTIFQLQQQLQLMQQQQHQQQPNLNQQPHTQVPK
modifications: Hordeum, vulgare subsp. vulgare
Take B2: in assay [1], the “ABA-binding affinity relative to 20 kDa fragment and full-length protein” value is recorded as “less than 50%”; the “ABA binding molar ratio / affinity” value is “slight binding affinity”.
